From patent US20250115598A1 (Anaxis Pharma Pty Ltd, priority 2021, published 2025)

Columns and labels:
[1] = biological target: human MLKL (full length) (Homo sapiens (Human), UniProt Q8NB16); assay: KINOMEscan binding assay, human MLKL (full length); conditions: KINOMEscan, Table 21; read-out: Human MLKL (full-length) (KD)
Method: Binding affinity of the test compounds for human MLKL (full length), mouse MLKL (full length), human RIPK1 and human RIPK3 was determined using the KINOMEscan™ technology developed by DiscoverX (USA; http://www.discoverx.com). The assay was conducted according to manufacturer instructions.
Kinase assays. For most assays, kinase-tagged T7 phage strains were grown in parallel in 24-well blocks in an E. coli host derived from the BL21 strain. E. coli were grown to log-phase and infected with T7 phage from a frozen stock (multiplicity of infection=0.4) and incubated with shaking at 32° C. until lysis (90-150 minutes). The lysates were centrifuged (6,000×g) and filtered (0.2 μm) to remove cell debris. The remaining kinases were produced in HEK-293 cells and subsequently tagged with DNA for qPCR detection. […] The liganded beads were blocked with excess biotin and washed with blocking buffer (SeaBlock (Pierce), 1% BSA, 0.05% Tween 20, 1 mM DTT) to remove unbound ligand and to reduce non-specific phage binding. […] All reactions were performed in polypropylene 384-well plates in a final volume of 20 μL. […] The kinase concentration in the eluates was measured by qPCR.
An 11-point 3-fold serial dilution of each test compound was prepared in 100% DMSO at 100× final test concentration and subsequently diluted to 1× in the assay (final DMSO concentration=1%). Most Kos were determined using a compound top concentration=30,000 nM.
KD for each test compound was calculated with a standard dose-response curve using the Hill equation (equation (1)): […]
The Hill Slope was set to −1.
Curves were fitted using a non-linear least square fit with the Levenberg-Marquardt algorithm.

[2] = biological target: human RIPK3 (Homo sapiens (Human), UniProt Q9Y572); assay: KINOMEscan binding assay, human RIPK3; conditions: Table 21
Chain of human RIPK3 (Q9Y572 whole entry): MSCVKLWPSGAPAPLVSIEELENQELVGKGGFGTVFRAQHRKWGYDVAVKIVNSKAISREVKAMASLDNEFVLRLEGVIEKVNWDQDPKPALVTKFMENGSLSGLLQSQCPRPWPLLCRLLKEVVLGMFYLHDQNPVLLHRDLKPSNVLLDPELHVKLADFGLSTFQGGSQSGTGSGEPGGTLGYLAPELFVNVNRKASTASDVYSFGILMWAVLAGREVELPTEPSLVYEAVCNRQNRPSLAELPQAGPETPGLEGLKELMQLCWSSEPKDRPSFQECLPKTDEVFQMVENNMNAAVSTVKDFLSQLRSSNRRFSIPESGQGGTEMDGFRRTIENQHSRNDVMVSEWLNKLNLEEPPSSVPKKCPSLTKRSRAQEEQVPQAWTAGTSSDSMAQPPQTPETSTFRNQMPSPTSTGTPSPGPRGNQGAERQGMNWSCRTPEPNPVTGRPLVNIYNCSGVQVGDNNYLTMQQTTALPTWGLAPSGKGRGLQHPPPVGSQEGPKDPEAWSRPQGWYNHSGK
Summary of the method: (§1)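 Compound dilutions (11 points, 3-fold, mostly from 30,000 nM, 1% DMSO final) competed with immobilized ligand for DNA- or phage-tagged protein, and bead-bound protein was measured by qPCR. Kd values came from Hill-equation fits with slope −1 (Levenberg-Marquardt).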

[3] = biological target: human RIPK1 (Homo sapiens (Human), UniProt Q13546); assay: KINOMEscan binding assay, human RIPK1; conditions: Table 21
Chain of human RIPK1 (Q13546 whole entry): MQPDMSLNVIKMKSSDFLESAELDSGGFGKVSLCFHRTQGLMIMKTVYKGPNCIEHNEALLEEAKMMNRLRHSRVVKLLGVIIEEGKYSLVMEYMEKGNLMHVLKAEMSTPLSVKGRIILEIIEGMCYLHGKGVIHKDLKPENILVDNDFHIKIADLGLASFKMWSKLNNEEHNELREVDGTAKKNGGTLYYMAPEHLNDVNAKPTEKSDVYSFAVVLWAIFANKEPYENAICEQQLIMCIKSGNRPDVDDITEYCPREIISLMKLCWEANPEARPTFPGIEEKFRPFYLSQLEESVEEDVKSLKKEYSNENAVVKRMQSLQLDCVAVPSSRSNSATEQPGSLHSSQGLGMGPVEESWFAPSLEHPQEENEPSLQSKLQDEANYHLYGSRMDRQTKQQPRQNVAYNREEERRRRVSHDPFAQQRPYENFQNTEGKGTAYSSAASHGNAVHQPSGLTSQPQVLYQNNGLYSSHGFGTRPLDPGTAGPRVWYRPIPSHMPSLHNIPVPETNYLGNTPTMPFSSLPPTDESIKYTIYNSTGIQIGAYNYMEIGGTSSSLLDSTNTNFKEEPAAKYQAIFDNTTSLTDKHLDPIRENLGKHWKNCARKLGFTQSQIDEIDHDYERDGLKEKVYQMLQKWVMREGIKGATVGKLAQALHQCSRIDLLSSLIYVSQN
Summary of the method: as §1

Chain of human MLKL (full length) (Q8NB16 whole entry): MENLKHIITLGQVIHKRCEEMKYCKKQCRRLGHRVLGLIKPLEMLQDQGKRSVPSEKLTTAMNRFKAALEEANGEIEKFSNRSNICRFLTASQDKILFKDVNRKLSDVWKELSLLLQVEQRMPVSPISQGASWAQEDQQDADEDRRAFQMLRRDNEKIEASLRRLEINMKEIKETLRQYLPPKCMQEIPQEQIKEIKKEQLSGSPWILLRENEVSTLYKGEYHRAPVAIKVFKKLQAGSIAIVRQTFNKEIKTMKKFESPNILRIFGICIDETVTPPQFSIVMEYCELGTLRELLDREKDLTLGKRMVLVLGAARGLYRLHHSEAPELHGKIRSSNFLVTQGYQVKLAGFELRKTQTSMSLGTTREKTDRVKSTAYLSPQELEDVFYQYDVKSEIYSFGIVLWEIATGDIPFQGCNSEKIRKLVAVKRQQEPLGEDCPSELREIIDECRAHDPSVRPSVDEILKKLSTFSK

Compound	Kd [1] [µM]	Kd [2] [µM]	Kd [3] [µM]
C[C@H](Oc1cc(-c2nn(C)c3c(-c4cnn(C5C[C@H]6CNC[C@H]6C5)c4)cnc(N)c23)ccc1NS(=O)(=O)C(F)F)c1ccc(F)cc1 (stereo partly drawn) [Compound 163, N-(4-(4-amino-1-methyl-7-(1-((3aR,6aS)-octahydrocyclo-penta[c]pyrrol-5-yl)-1H-pyrazol-4-yl)-1H-pyrazolo[4,3-c]pyridin-3-yl)-2-((S)-1-(4-fluoropohenyl)eth-oxy)phenyl)-1,1-difluoromethane-sulfonamide]	< 0.001	> 10	> 10
C[C@H](Oc1cc(-c2nn(C)c3c(-c4ccc5c(c4)n(C)c(=O)n5C)cnc(N)c23)ccc1NS(=O)(=O)C(F)F)c1ccc(F)cc1 [Compound 161, (S)-N-(4-(4-amino-7-(1,3-dimethyl-2-oxo-2,3-dihydro-1H-benzo[d]imidazol-5-yl)-1-methyl-1H-pyrazolo[4,3-c]pyridin-3-yl)-2-(1-(4-fluorophenyl)ethoxy)phenyl)-1,1-difluoromethanesulfonamide]	< 0.001	> 10	> 10
C[C@H](Oc1cc(-c2nn(C)c3c(-c4cnn(C5CCOC5)c4)cnc(N)c23)ccc1NS(=O)(=O)C(F)F)c1ccc(F)cc1 (stereo partly drawn) [Compound 41, N-(4-(4-amino-1-methyl-7-(1-(tetrahydrofuran-3-yl)-1H-pyrazol-4-yl)-1H-pyrazolo[4,3-c]pyridin-3-yl)-2-((S)-1-(4-fluorophenyl)ethoxy)phenyl)-1,1-difluoromethanesulfonamide]	< 0.001	> 10	> 10
Nc1n[nH]c2nccc(-c3ccc(NS(=O)(=O)CC(F)(F)F)c(OCc4ccc(F)cc4)c3)c12 [Compound 67, N-(4-(3-Amino-1H-pyrazolo[3,4-b]pyridin-4-yl)-2-((4-fluorophenyl)methoxy)phenyl)-2,2,2-trifluoroethane-1-sulfonamide]	< 0.001	> 10	> 10
CC(C)N(C)C(=O)C(C)n1cc(-c2cnc(N)c3c(-c4ccc(NS(=O)(=O)C(F)F)c(O[C@@H](C)c5ccc(F)cc5)c4)nn(C)c23)cn1 (stereo partly drawn) [Compound 81, 2-(4-(4-amino-3-(4-((difluoromethyl)sulfonamido)-3-((S)-1-(4-fluorophenyl)ethoxy)phenyl)-1-methyl-1H-pyrazolo[4,3-c]pyridin-7-yl)-1H-pyrazol-1-yl)-N-isopropyl-N-methylpropanamide]	< 0.001	> 10	> 10
CC#Cc1cnc(N)c2c(-c3ccc(NS(=O)(=O)C(F)F)c(O[C@@H](C)c4ccc(F)cc4)c3)nn(C)c12 [Compound 56, (S)-N-(4-(4-amino-1-methyl-7-(prop-1-yn-1-yl)-1H-pyrazolo[4,3-c]pyridin-3-yl)-2-(1-(4-fluorophenyl)ethoxy)phenyl)-1,1-difluoromethane-sulfonamide]	< 0.001	> 10	> 10
C[C@H](Oc1cc(-c2nn(C)c3c(-c4ccnc(C(F)(F)F)c4)cnc(N)c23)ccc1NS(=O)(=O)C(F)F)c1ccc(F)cc1 [Compound 23, (S)-N-(4-(4-amino-1-methyl-7-(2-(trifluoromethyl)pyridin-4-yl)-1H-pyrazolo[4,3-c]pyridin-3-yl)-2-(1-(4-fluorophenyl)ethoxy)phenyl)-1,1-difluoromethanesulfonamide]		> 10	> 10
C[C@H](Oc1cc(-c2nn(C)c3c(-c4ccnc(C(F)F)c4)cnc(N)c23)ccc1NS(=O)(=O)C(F)F)c1ccc(F)cc1 [Compound 57, (S)-N-(4-(4-amino-7-(2-(difluoromethyl)pyridin-4-yl)-1-methyl-1H-pyrazolo[4,3-c]pyridin-3-yl)-2-(1-(4-fluorophenyl)ethoxy)phenyl)-1,1-difluoromethanesulfonamide]		0.1 to 10	> 10
